We go through 12 compounds from ChEMBL document CHEMBL1201862, “PubChem BioAssay data set” (2004).

A short description of assay [1]: cytotoxicity toward DRD oncogenic fibroblasts, dose response, cell-based, non-viral oncogenic, luminescence (AID 1934). Conditions: Homo sapiens. In kind it is functional.
The test system of assay [2] is BJ. Description: cells. It is filed as functional, cell-based. Particulars: Homo sapiens.
The subject of assay [3] is INS1. Description: beta cell apoptosis inhibitors, cytokine rescue, dose response, luminescence, retest (AID 449756).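 Also: cell death triggered by IL-1 beta plus TNF-alpha plus IFN-gamma mixture; protective hits raise ATP signal compared with cytokine alone wells.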 It is filed as functional, cell-based. Particulars: Rattus norvegicus.
In assay [4] the target is T1, Sphingosine 1-phosphate receptor 4 (Homo sapiens, UniProt O95977).
T1 sequence (O95977 whole entry): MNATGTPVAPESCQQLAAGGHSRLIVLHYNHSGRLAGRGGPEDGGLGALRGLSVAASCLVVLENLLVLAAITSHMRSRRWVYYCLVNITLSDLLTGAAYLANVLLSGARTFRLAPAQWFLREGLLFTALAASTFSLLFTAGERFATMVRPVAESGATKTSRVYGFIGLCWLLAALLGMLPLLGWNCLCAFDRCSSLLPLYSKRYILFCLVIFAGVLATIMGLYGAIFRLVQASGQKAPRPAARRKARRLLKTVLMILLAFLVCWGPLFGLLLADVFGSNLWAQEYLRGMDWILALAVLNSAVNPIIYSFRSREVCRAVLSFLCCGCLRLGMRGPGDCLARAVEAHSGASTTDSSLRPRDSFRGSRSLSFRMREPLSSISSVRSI
Description: Fluorescence dose response cell-based high throughput screening assay for antagonists of the Sphingosine 1-Phosphate Receptor 4 (S1P4). [Related pubchem assays: 1524 (Confirmation in triplicates.), 1510 (Primary screen.)]. It is filed as functional.

Assay [5] can be described thus: Shn3 3'UTR reporter inhibitors, dose response, cell-based, Clone20 osteoblasts, firefly luciferase, cherry-picked (AID 624132).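 Also: firefly luciferase luminescence from reporter carrying the Shn3 3'UTR in osteoblasts.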 In kind it is functional.
A short description of assay [6]: HepG2 cell cytotoxicity, dose response, cytotoxicity control for Shn3 inhibitor project, CellTiter-Glo, cherry-picked (AID 624134). In kind it is functional, cell-based. (In general: Cellular ATP, detected with luciferase, serves as a proxy for viable cell number.)
Assay [7] deals with Neurotensin receptor type 1 (Homo sapiens, UniProt P30989). In kind it is functional.
Sequence of Neurotensin receptor type 1 (P30989 whole entry): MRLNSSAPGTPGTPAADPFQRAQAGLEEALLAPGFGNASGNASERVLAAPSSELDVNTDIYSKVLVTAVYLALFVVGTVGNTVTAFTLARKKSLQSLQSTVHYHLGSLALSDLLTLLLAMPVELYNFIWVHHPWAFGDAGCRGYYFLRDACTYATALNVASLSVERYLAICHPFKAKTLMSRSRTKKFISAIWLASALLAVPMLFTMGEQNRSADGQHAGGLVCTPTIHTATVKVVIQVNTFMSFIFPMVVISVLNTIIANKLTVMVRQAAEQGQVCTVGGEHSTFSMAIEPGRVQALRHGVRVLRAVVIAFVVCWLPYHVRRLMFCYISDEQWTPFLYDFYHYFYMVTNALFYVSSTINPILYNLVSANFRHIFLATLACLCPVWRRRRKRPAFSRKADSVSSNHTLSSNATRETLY
The nature of assay [8]: cytotoxicity toward NIH3T3 fibroblasts, dose response, counter-screen, cell-based, ATP luminescence, mouse fibroblasts (AID 2010).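 Also: cells exposed to compound for about 90 hours before reading.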 In kind it is functional.
The target in assay [9] is T1, Sphingosine 1-phosphate receptor 4. Description: Late stage fluorescence dose response cell-based screening assay for antagonists of the Sphingosine 1-Phosphate Receptor 4 (S1P4). [Related pubchem assays: 1524 (Confirmation screen (S1P4 antagonists).), 1510 (Primary screen (S1P4 antagonists).), 1853 (Summary AID (S1P4 antagonists).), 1692 (Dose response screen (S1P4 antagonists).)]. It is filed as functional.

Assay [10] deals with Sphingosine 1-phosphate receptor 1 (Homo sapiens, UniProt P21453). It is filed as functional.
Sequence of Sphingosine 1-phosphate receptor 1 (P21453 whole entry): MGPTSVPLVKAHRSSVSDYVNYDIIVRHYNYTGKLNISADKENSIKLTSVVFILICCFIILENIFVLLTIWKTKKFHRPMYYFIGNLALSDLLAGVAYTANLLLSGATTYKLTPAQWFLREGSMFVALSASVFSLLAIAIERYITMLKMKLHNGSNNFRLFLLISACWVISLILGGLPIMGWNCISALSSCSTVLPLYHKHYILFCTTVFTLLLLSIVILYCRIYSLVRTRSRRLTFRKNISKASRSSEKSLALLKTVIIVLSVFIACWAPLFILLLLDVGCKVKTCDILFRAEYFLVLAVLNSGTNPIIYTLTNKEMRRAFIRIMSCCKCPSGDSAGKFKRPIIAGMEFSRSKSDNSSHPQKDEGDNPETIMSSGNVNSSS
The nature of assay [11]: microbe, parasite or virus in culture. It is filed as functional. Conditions: Mycobacterium tuberculosis.
Assay [12] is described as follows: inhibitors of intracellular T. cruzi replication, confirmation, NIH3T3 host cells, beta-gal luminescence (AID 2044).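 Also: intracellular parasites grown in NIH/3T3 mouse fibroblasts as host cells; luminescent beta-galactosidase reporter signal from transgenic T. cruzi replicating inside host cells; inhibitors lower the luminescence signal.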 In kind it is functional, cell-based.
Assay [13] has as its system BJ. Description: cytotoxicity toward BJ-TERT-LT-ST fibroblasts, dose response, cell-based, RAS-independent, luminescence (AID 1935).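 Also: BJ fibroblasts immortalized with TERT plus LT and ST oncogenes.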 In kind it is functional. Conditions: Homo sapiens.
Assay [14] concerns BJ. The assay can be described thus: cytotoxicity toward BJ-TERT fibroblasts, dose response, cell-based, RAS-independent, luminescence (AID 1933). It is filed as functional. Conditions: Homo sapiens.
The nature of assay [15]: control 3'UTR Renilla luciferase suppression, dose response, counter-screen for Shn3 inhibitor project, cell-based, Clone20-Shn3RL, cherry-picked (AID 624133). In kind it is functional.
Assay [16] is described as follows: HepG2 cell cytotoxicity, dose response, cytotoxicity control for non-replicating M. tuberculosis project (AID 489018). It is filed as functional. Particulars: Mycobacterium tuberculosis.
Assay [17] is described as follows: NIH-3T3 fibroblast cytotoxicity, dose response, cytotoxicity control, cell-based, fluorescence, Alamar Blue, secondary assay (AID 2327).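 Also: NIH-3T3 mouse fibroblasts cultured with fluconazole at 8 µg/mL.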 In kind it is functional.
Assay [18] in a line: cells. It is filed as functional.
Assay [19] can be described thus: cells.
Assay [20] concerns Trypanosoma cruzi. The assay can be described thus: growth inhibition of intracellular Trypanosoma cruzi, dose response, cell-based, plate reader, dry powder, set 3 (AID 493197). In kind it is functional.
A short description of assay [21]: Vero E6 cell cytotoxicity, dose response, cytotoxicity control for non-replicating M. tuberculosis project, secondary assay (AID 492998). It is filed as functional, VeroE6. Conditions: Vero C1008.
Assay [22] can be described thus: cytotoxicity in NIH/3T3 mouse fibroblasts, dose response, cytotoxicity control, cell-based, mouse embryonic fibroblasts, dry powder, set 2 (AID 493247). Conditions: Fibroblast. In kind it is functional.
Assay [23] is described as follows: THP-1 cell cytotoxicity, dose response, cytotoxicity control for non-replicating M. tuberculosis project (AID 489025). It is filed as functional.
The nature of assay [24]: A cytotoxicity screen of small molecule inhibitors of the PhoP region in Salmonella typhi identified in the primary screen. [Related pubchem assays: 1850, 1864, 1985 ]. In kind it is functional.
The nature of assay [25]: C. albicans growth with fluconazole, confirmation, fluorescence, retest (AID 2467). It is filed as functional, cell-based.
Assay [26] concerns the target T1, Sphingosine 1-phosphate receptor 4. The assay can be described thus: S1P4 receptor agonists, human, late-stage follow-up, cell-based, fluorescence, synthesized compounds (AID 463107). In kind it is functional.
Assay [27] concerns the target Metabotropic glutamate receptor 4 (Rattus norvegicus, UniProt P31423). The assay can be described thus: Modulation of the Metabotropic Glutamate Receptor mGluR4: Rat PAM Potency. [Related pubchem assays (depositor defined):AID2437, AID2807]. It is filed as functional.
Assay [28] deals with X-box-binding protein 1 (Homo sapiens, UniProt P17861). In kind it is functional, Cricetulus griseus.
Assay [29] addresses Eukaryotic translation initiation factor 4H (Homo sapiens, UniProt Q15056). Description: human eIF4H binding inhibitors, primary screen, translation initiation inhibitor project, biochemical, uHTS, fluorescence polarization (AID 2012). (Fluorescence polarisation rises when a labelled molecule tumbles more slowly, as on binding a larger partner.)
For assay [30], the target named is Polyadenylate-binding protein 1 (Homo sapiens, UniProt P11940). Description: PABP poly(A) RNA binding inhibitors, primary screen, biochemical, fluorescence polarization, uHTS (AID 2014).
Sequence of Polyadenylate-binding protein 1 (P11940 whole entry): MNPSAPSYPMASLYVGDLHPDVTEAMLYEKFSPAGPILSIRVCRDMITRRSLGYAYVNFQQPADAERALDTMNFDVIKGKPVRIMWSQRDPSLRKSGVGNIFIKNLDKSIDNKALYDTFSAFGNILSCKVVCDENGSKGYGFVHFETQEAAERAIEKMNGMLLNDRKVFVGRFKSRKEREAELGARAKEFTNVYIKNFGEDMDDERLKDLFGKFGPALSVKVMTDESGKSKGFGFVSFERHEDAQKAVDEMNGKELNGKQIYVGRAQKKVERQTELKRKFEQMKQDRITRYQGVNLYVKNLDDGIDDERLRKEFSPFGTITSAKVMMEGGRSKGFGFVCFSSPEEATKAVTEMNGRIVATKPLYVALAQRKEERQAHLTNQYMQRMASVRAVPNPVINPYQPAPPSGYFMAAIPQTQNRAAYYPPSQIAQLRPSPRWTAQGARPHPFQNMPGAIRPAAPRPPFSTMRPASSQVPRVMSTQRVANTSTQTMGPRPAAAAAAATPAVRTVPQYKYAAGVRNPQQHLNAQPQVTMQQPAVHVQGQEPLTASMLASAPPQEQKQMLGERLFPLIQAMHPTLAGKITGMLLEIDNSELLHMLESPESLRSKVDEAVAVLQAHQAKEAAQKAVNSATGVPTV
The subject of assay [31] is T-cell. The assay can be described thus: inhibitors of CD8+ T cell–vesicle binding, dose response, mouse 2C CD8+ T cells, flow cytometry (AID 485284). In kind it is functional.
Assay [32] deals with Nucleotide-binding oligomerization domain-containing protein 2 (Homo sapiens, UniProt Q9HC29). The assay can be described thus: PubChem AID 2334. It is filed as functional.
Sequence of Nucleotide-binding oligomerization domain-containing protein 2 (Q9HC29 whole entry, the tested form may be a part): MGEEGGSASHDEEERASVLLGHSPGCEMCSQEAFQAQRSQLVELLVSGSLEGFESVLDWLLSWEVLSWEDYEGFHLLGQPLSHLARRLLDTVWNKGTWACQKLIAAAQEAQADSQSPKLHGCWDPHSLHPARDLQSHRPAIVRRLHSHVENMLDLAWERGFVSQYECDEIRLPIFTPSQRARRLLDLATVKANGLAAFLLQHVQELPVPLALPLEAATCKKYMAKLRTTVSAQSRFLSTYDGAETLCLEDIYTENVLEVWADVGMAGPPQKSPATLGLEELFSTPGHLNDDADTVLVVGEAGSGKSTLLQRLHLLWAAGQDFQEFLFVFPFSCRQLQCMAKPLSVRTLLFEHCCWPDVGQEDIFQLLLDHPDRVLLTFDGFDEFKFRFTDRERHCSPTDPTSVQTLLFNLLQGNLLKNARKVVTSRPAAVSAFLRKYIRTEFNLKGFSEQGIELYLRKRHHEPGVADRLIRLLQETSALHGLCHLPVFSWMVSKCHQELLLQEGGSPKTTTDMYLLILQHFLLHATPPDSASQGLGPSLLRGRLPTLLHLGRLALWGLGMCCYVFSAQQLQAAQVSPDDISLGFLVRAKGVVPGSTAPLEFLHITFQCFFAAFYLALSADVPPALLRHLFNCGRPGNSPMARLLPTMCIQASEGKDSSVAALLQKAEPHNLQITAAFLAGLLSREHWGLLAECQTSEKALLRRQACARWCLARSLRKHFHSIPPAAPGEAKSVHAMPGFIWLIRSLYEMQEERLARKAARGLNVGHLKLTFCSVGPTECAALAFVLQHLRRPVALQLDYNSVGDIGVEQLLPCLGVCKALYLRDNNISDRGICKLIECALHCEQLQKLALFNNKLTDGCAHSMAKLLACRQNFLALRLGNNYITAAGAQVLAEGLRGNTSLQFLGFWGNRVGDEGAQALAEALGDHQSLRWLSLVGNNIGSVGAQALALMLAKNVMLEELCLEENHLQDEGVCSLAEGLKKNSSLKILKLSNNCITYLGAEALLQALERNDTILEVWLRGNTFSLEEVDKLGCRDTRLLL
Assay [33] concerns the target Tumor necrosis factor (Homo sapiens, UniProt P01375). The assay can be described thus: TNFa-triggered NF-kB activation inhibitors, SAR follow-up, cell-based, revised (AID 2337). It is filed as functional.
Assay [34] relates to HEK293. The assay can be described thus: cells. Particulars: Homo sapiens.
In assay [35] the target is T2, Nucleotide-binding oligomerization domain-containing protein 1 (Homo sapiens, UniProt Q9Y239).
T2 sequence (Q9Y239 whole entry): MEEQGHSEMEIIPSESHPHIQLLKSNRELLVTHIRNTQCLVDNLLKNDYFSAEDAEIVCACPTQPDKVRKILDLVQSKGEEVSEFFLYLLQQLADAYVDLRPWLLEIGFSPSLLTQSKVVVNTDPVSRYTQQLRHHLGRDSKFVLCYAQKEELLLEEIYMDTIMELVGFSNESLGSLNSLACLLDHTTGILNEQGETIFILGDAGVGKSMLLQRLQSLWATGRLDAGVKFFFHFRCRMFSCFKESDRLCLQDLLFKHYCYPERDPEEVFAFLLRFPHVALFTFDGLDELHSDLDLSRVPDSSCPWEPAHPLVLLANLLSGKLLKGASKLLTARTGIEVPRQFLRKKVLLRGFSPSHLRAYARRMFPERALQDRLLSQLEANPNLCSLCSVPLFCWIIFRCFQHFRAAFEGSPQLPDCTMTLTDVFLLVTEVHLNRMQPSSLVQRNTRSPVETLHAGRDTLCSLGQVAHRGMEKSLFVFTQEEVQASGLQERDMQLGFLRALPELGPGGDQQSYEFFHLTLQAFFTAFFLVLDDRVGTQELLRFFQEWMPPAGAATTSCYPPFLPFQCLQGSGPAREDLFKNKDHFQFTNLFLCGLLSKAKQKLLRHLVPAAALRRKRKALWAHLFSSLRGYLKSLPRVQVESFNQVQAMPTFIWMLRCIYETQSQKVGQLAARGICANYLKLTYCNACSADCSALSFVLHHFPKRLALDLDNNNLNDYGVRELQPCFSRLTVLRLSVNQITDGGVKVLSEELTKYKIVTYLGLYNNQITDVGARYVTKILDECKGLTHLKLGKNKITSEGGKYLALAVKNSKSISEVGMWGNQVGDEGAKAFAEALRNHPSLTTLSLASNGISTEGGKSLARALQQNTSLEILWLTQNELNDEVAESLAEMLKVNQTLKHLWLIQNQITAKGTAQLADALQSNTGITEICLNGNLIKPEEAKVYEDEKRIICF
The assay can be described thus: NOD1 signaling inhibitors, SAR follow-up, revised (AID 2333). In kind it is functional.

The target of assay [36] is Scavenger receptor class B member 1 (Mus musculus, UniProt Q61009). Description: inhibitors of SR-BI mediated HDL lipid uptake, dose response, ldlA[mSR-BI] cells, fluorescence, cherry pick (AID 493194).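 Also: cellular uptake of fluorescent DiI-labeled HDL measured as cell fluorescence.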 In kind it is functional, cell-based.
Sequence of Scavenger receptor class B member 1 (Q61009 whole entry): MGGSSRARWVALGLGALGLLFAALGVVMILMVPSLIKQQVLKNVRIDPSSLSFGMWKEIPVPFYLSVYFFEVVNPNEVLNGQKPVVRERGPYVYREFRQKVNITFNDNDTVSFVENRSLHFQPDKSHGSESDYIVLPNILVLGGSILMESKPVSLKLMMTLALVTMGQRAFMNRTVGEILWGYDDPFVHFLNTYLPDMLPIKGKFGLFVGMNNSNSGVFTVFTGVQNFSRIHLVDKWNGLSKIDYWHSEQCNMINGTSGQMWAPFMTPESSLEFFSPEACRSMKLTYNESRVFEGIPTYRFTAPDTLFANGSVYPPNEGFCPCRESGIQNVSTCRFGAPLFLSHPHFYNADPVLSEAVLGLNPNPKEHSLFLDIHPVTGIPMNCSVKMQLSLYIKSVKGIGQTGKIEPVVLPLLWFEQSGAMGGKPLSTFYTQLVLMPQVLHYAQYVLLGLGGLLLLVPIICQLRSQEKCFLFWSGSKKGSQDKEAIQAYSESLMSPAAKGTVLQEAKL
Assay [37] in a line: Cytotoxicity screening for potential Inhibitors of Bacterial Capsule Biogenesis. [Related pubchem assays (depositor defined):AID488970]. In kind it is functional.
In assay [38] the target is Cyclin-dependent kinase 5/CDK5 activator 1 (Homo sapiens, UniProt Q00535). Description: CDK5/p35 kinase inhibitors, dose response, biochemical, cherry-picked samples, set 2 (AID 504545).
Assay [39] concerns the target Coagulation factor XII (Homo sapiens, UniProt P00748). The assay can be described thus: FXIIa inhibitor potency, concentration-response, biochemical (AID 716). In kind it is functional.

Activity calls are given as the source filed them. A value given as a limit tells only on which side of the number the result lay.
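For Absolute IC50 (XBP1) in this document: confirmatory dose-response counter-screen serving a CHOP assay.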

Sequence of Tumor necrosis factor (P01375 whole entry): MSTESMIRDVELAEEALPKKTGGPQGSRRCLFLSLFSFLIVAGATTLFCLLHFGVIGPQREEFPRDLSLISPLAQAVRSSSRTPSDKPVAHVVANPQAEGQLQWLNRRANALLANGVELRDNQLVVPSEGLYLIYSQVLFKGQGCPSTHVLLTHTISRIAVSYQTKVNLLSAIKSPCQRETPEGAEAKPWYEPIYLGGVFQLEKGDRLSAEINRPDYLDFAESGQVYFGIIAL
Sequence of Metabotropic glutamate receptor 4 (P31423 whole entry): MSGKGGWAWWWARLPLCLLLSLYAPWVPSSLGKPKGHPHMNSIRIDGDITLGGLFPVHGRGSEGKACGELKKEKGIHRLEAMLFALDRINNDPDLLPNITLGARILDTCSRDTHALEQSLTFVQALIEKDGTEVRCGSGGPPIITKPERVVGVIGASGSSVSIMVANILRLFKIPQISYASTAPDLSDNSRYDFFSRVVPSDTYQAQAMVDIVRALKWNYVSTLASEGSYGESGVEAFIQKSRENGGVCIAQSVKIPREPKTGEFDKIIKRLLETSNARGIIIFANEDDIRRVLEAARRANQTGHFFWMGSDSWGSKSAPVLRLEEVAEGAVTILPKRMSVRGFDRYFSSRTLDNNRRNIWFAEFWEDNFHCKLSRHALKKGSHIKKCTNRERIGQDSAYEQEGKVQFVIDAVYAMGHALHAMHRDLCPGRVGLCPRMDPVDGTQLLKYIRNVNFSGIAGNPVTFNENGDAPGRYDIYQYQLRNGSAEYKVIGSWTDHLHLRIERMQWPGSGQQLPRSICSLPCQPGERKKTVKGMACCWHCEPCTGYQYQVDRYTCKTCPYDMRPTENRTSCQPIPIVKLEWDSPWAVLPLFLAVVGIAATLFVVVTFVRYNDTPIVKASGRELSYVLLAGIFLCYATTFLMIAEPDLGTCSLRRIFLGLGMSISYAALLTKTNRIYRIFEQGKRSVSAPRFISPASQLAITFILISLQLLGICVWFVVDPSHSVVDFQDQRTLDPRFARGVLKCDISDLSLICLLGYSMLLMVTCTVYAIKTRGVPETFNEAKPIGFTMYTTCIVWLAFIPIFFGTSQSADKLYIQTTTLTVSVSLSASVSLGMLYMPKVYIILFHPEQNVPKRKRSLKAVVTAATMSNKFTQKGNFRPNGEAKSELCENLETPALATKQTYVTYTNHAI
Sequence of Coagulation factor XII (P00748 20-372 limits assumed): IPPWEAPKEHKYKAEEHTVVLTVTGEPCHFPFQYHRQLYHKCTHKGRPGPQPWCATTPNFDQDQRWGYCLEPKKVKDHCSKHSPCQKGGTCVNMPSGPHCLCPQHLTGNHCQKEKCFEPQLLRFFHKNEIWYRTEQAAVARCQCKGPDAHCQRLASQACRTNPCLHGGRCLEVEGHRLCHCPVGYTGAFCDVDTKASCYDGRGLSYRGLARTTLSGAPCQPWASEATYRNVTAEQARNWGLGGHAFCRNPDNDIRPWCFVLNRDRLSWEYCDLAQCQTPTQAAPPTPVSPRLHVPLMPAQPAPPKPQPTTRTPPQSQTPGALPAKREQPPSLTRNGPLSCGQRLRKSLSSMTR
Sequence of Coagulation factor XII (P00748 373-615 limits assumed): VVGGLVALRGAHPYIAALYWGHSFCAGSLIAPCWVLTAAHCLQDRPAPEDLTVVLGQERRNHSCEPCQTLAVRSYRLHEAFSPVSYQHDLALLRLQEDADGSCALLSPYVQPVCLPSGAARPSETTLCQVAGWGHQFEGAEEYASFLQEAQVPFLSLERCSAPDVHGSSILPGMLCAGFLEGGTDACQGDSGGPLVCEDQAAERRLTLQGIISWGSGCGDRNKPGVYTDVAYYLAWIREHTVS

The EC50 is the concentration that produces a half-maximal response. The AC50 is the midpoint of the concentration-response curve, whichever way the signal moves. Broadly, the IC50 is the point on the concentration scale where inhibition reaches its midpoint. Take `O=C(/C(=C/c1ccc(Cl)cc1)c1nc2ccccc2[nH]1)c1cccs1`: the EC50 in assay [1] was 5.28 µM (inconclusive); in assay [2], 9.34 µM (active); in assay [7], 12.6 µM (active); in [8] it was 5.47 µM (active); in assay [12] it was 1.03 µM (active); in assay [13], 3.71 µM (inconclusive). Besides, in [14], the EC50 is 4.27 µM (inconclusive). Also, the AC50 is 3.71 µM (active) in assay [3], 2.66 µM (active) in assay [5], 8.26 µM (active) in assay [6] and 8.35 µM (active) in [15]. In addition, the figures for the IC50 in assay [4], in [9] and in assay [10] were 0.37 µM (active), 0.737 µM (active) and 6.77 µM (active), respectively. In assay [11], the CC50 was 2.9 µM (active).

Regarding `O=C(CCC(=O)Nc1ccc(Cl)cc1Cl)N/N=C/c1ccc([N+](=O)[O-])o1`, the CC50 in assay [16] was 14 µM (active); in assay [21] it was > 20 µM (active); in [23] it was 17.4 µM (active). The AC50 was 15.2 µM (active) in assay [3], < 0.003 µM (active) in [20] and 11.4 µM (active) in assay [22]. Further, the EC50 in assay [17] is 8.66 µM (inconclusive); in assay [19] it was 0.007 µM (active); in assay [24] it was > 50 µM (active); in assay [25] it was 2.3 µM (active); in assay [12] it was < 0.1 µM (active). For the same compound, in assay [18], the IC50 is 0.85 µM (active).

For the compound `O=[N+]([O-])c1ncccc1OCCOc1ccc(Cl)cc1Cl`, the EC50 in assay [26] is 29.8 µM (inactive).

As to `CC1(C)[C@@H]2C(=O)N(c3ccc(NC(=O)c4ccccn4)cc3Cl)C(=O)[C@@H]21`, the EC50 in assay [27] was 0.69 µM (active).

In the case of `O=C(NCc1ccccc1)c1cc(-c2ccncc2)nc2ccc(S(=O)(=O)N3CCOCC3)cc12`, in [28], the “Absolute IC50 (XBP1)” value was 10 µM.

In the case of `O=C(COC(=O)CCC(=O)c1ccc(Cl)cc1)NCc1ccco1`, the IC50 in assay [29] is 11.1 µM (active); in assay [30], 26.7 µM (active).

Consider `CCOC(=O)/C=C1\SCC(=O)N1CC(=O)NC1CCCCC1`, for which, in [31], the EC50 is 7.17 µM (active).

Take `CCC1CCc2c(sc(NC(=O)c3ccccc3Br)c2C(=O)OC)C1` (stereo not given): the IC50 in assay [32], in [33], in assay [34] and in assay [35] was > 20 µM (inactive) in each case.

As to `Cc1c(C(=O)OCCOC(C)C)[nH]c2c1C(=O)CC(c1ccco1)C2` (stereo not given), the EC50 in assay [1] is 1.28 µM (inconclusive); in assay [2], 1.71 µM (inconclusive); in [13], 0.73 µM (inconclusive); in [14], 0.37 µM (active). The half-maximal activity concentration (AC50) in assay [36] was 34 µM (active).

Regarding `N=C(N)SCCc1cccc(CCSC(=N)N)c1`, in assay [37], the CC50 is 47.9 µM (active).

On to `Cc1nn(-c2ccc(Cl)cn2)c2c1C(=O)CC(C)(C)C2Br` (stereo not given), for which the AC50 in assay [38] was 89.2 µM (active).

On to `CCOC(=O)c1[nH]c2ccc(OC)cc2c1NC(=O)N1CCOCC1`, for which the IC50 in [39] was > 50 µM (inactive).
